Test: xn = mol fraction of the nth substance listed
Conditions: 101.3 kPa, Liquid; for viscosity: Capillary tube (Ostwald / Ubbelohde) method

OCCCCO [1,4-butanediol] + O
Conditions	mass density, 328.15 K [kg/m3]	mass density, 338.15 K [kg/m3]	speed of sound, 328.15 K [m/s]	speed of sound, 338.15 K [m/s]	viscosity, 338.15 K [mPa·s]
x2 = 0.055	–	988.66	–	1531.3	12.72
x2 = 0.1534	–	989.67	–	1540.8	11.28
x2 = 0.2472	–	990.72	–	1549.4	9.897
x2 = 0.3542	–	992.05	–	1562.2	8.335
x2 = 0.4531	–	993.23	–	1575.1	6.914
x2 = 0.498	–	993.7	–	1580.7	6.279
x2 = 0.5578	–	994.23	–	1588.5	5.449
x2 = 0.6513	–	994.7	–	1599	4.213
x2 = 0.7496	–	994.27	–	1611.3	3.033
x2 = 0.8475	–	991.81	–	1615.6	2
x2 = 0.9081	–	988.57	–	1606.6	1.404
x2 = 0.9152	–	988.08	–	1605.1	1.335
x2 = 0.9253	–	987.35	–	1601.7	1.235
x2 = 0.9355	–	986.56	1611.8	1597.4	1.133
x2 = 0.9543	990.62	984.97	1597.3	1587.8	0.941
x2 = 0.955	990.55	984.91	1596.3	1586.8	0.934
x2 = 0.9597	990.08	984.49	1592.2	1584.2	0.885
x2 = 0.9699	989.02	983.54	1581.9	1577.1	0.776
x2 = 0.9804	987.89	982.52	1569.6	1569	0.662
x2 = 0.9901	986.81	981.56	1558.3	1560	0.553
x2 = 0.9924	986.55	981.32	1555.3	1558.2	0.527
x2 = 0.9955	986.2	981.01	1550.2	1554.5	0.491

— the NIST ThermoML archive (doi:10.1021/je0340755)
